Read-outs that look alike come from different tables or passages of the source.

One assay deals with T2 DR4 tumour cells. The assay can be described thus: 51Cr-release assay, CTL lines from immunised mice against T2 DR4 cells. The format is cell-based. The procedure: Target cells were labelled for 1 hr with 1.85 MBq sodium (^51Cr) chromate (Amersham, Essex, UK) with or without 10 μg/ml peptide. Post incubation they were washed 3 times in RPMI. Targets 5×10^3/well of a 96-well V-bottomed plates were set up and co incubated with different densities of effector cells in a final volume of 200 μl of RPMI, 10% FCS (Sigma), 20 mM HEPES buffer, 2 mM L-glutamine, 100 units/ml penicillin and 100 μg/ml streptomycin. After 20 hrs at 37° C., 50 μl of supernatants were removed from each well and transferred to a Lumaplate (Packard, Rigaweg, the Netherlands). Plates were read on a Topcount Microplate Scintillation Counter (Packard). Percentage specific lysis was calculated using the following formula: specific lysis=100×[(experimental release−spontaneous release)/(maximum release−spontaneous release)].

Another assay has as its system PBMC. The assay is described as follows: Proliferation assay of PBMC from cancer patients. The format is cell-based, human. The settings on record: PBMC stimulated with 10 μg/ml peptide for 4, 7 and 11 days, 3H-thymidine. The procedure:
PBMC were isolated from freshly drawn heparinised blood by Ficol-Hypaque (Sigma) gradient centrifugation. PBMC (1.5×10^6 cells/well) were stimulated with single peptides (final concentration 10 μg/ml) in RPMI containing 5% pooled autologous human serum, 2 mM glutamine, 20 mM HEPES and Penicillin-streptomycin (1%) in a final volume of 2 ml. Stimulation with purified protein derivative, PPD (final concentration 10 μg/ml) served as a positive control for the proliferative capacity of PBMC. As a negative control PBMC were incubated with medium alone. The PBMC were cultured at 37° C. in an atmosphere of 5% CO2 for 4, 7 and 11 days. To assess proliferation at these times points 100 μl in triplicate from each culture was aliquoted into a round bottom well of a 96 well plate and ^3H-thymidine added (0.0185 MBq/well) and incubated at 37° C. for a further 8 hours. The cultures were harvested onto unifilter plates and incorporation of ^3H-thymidine was determined by β-scintillation counting. The results were assessed by calculating the stimulation index (SI) as the ratio of the mean of counts per minute (cpm) of epitope-stimulated to the mean of unstimulated cultures. The proliferative assay was considered positive when SI >2.5.

Another assay has as its system B16F1-DR4 cells. The assay can be described thus: Tumour challenge with B16F1-DR4 cells. It counts as in vivo, HLA-DR4 transgenic mice. The procedure: (§1) For tumour challenge experiments mice were challenged with 2.5×10^4 B16 HHDII NYESO/TAP2 siβ2m 1F10 cells or B16 DR4 2E7 cells subcutaneously on the right flank 3 days prior to primary immunisation and then were immunised as above. Anti-IFNγ antibody (300 μg/dose), anti-IL-17 antibody (200 μg/dose) and anti-HLA-DR antibody (300 μg/dose) were administered i.p. in saline at days 2, 7, 11 and 14 post tumour implant. Anti-CD4 antibody (500 μg/dose) was administered i.p.in saline at days 2 and 8 post tumour implant. Tumour growth was monitored at 3-4 days intervals and mice were humanely euthanized once tumour reached ≥10 mm in diameter.

In assay [1] the test system is splenocytes. The assay can be described thus: Ex vivo elispot assay on splenocytes of immunised HLA-DR4 transgenic mice. It counts as in vivo. To be noted: for EC50: 25 μg peptide days 0, 7, 14, day 21. How it is done: (§2) C57BL/6 mice (Charles River, UK), HLA-DR4 mice (Taconic, USA), HHDII mice (Pasteur institute, France) and HHDII/DRI mice (Pasteur institute, France) were used, aged between 8 and 12 weeks, and cared for by the staff at Nottingham Trent University. All work was carried out under a Home Office project license. Peptides were dissolved in 10% Dimethylformamide to 1 mg/ml and then emulsified (a series of dilutions) with different adjuvants: CpG and MPLA 6 μg/mouse of each (Invivogen, UK), Incomplete Freund's […] (Sigma, UK), and GMCSF 10 μg/mouse (Peprotech, UK). Peptides (25 μg/mouse) were injected subcutaneously at the base of the tail. DNA (1 μg/mouse) was coated onto 1.0 μm gold particles (BioRad, Hemel Hempstead, UK) using the manufacturer's instructions and administered intradermally by genegun (BioRad). Homspera (10 nM/mouse) (PeptideSynthetics, UK) was injected intradermally with genegun immunisation. Mice were immunized at either day 0 for peptide immunisation or days, 0, 7, and 14 for peptide and genegun immunisation. Spleens were removed for analysis at day 14 for peptide and day 20 for peptide or genegun immunisation unless stated otherwise. 400 μg Anti-CD25 antibody (PC61) was administered i.p. in saline 3 days prior to the immunisation. 200 μg Anti-CTLA-4 antibody (UC 10-4F, 10-11) was administered i.p. in saline at day 7 and 14 with either genegun or peptide immunisation.
(§3) Elispot assays were performed using murine IFNγ, IL-17 and IL-10 capture and detection reagents according to the manufacturer's instructions (Mabtech, Sweden). In brief, anti-IFNγ, IL-17 and IL-10 antibodies were coated onto wells of 96-well Immobilin-P plate. Synthetic peptides (at a variety of concentrations) and 5×10^5 per well splenocytes were added to the wells of the plate in triplicate. Tumour target cells were added where relevant at 5×10^4/well in triplicate and plates incubated for 40 hrs at 37° C. After incubation, captured IFNγ, […], IL-17 and IL-10 were detected by biotinylated anti-IFNγ, IL-17 and IL-10 antibodies and developed with a strepatavidin alkaline phosphatase and chromogenic substrate. Spots were analysed and counted using an automated plate reader (Cellular Technologies Ltd). Functional avidity was calculated as the concentration mediating 50% maximal effector function using a graph of effector function versus peptide concentration.

In assay [2] the test system is splenocytes. The assay can be described thus: Ex vivo elispot assay on splenocytes of immunised HLA-DR1 / HLA-A2/DR1 (HHDII/DR1) transgenic mice. The format is in vivo. The settings on record: HHD1/DR1 mice. How it is done:
as §2, §3

In a further assay the test system is B16F1 cells. The assay can be described thus: Tumour challenge with B16 tumour lacking HLA-DR0401. To be noted: B16 tumour lacking expression of HLA-DR0401; 25 μg peptide in CpG and MPLA. The format is in vivo, HLA-DR4 transgenic mice. How it is done:
as §1

Assay [3] deals with splenocytes. The assay is described as follows: Ex vivo elispot assay on splenocytes of immunised C57B1 mice. The format is in vivo, C57BL/6 mice. The settings on record: C57B1 mice. How it is done:
as §2, §3

A further assay deals with Granzyme B. The assay can be described thus: Granzyme B ELISA on supernatant of ex vivo IFNγ elispot. It counts as cell-based, HLA-DR4 transgenic mice. To be noted: immunised days 0, 7, 14 in CPG and MPLA. From the text:
Supernatant from ex vivo IFNγ elispot assays on splenocytes was removed after 40 hrs and assessed for Granzyme B by elisa assay (R&D systems) according to manufacturer's instructions.

In a further assay the target is T1, HLA-DR0401 (human).
T1 construct: also called purified HLA-DR0401; HLA-DR4
The assay is described as follows: competitive binding assay, plate-bound HLA-DR0401, biotinylated HA306-318 as competitor.

Setting [4] is: 25 μg peptide in CpG and MPLA s.c. days 4, 11, 18.
Where [5] appears, read: 25 μg peptide with CpG and MPLA day 0, day 14, peptide 5 μM.
Where [6] appears, read: 25 μg peptide with CpG and MPLA day 0, day 14 splenocytes, peptide 5 μM.

On to “LPNFSSLNLRETNLDSLPL [citrullinated vim 415]”, for which, in the assay on T2 DR4 tumour cells (DR4 splenocytes), the “killing of normal splenocytes” value is given as “no killing of normal splenocytes”. The “killing of T2 tumour cells transfected with human DR4” value in the assay with T2 DR4 tumour cells (targets pulsed with peptide or not) is reported as “killed transfected targets whether they were pulsed with the appropriate peptide or not”. Besides, in the assay on PBMC (listed as citrullinated vim 415-433), the “patients showing a proliferative response (SI >2.5)” value is 5/11. Further, the “patients showing a proliferative response (SI >2.5)” value in the assay with PBMC (listed as vim 415 cit) is “Five of eight”. Besides, in the assay with B16F1-DR4 cells (setting [4]), the “mice cured of their tumour” value amounted to 30% and the “mice with no tumour at day 35” value was determined as 50%. Besides, the “anti-tumour response in combination with anti-HLA-DR blocking antibody” value in the assay on B16F1-DR4 cells (B16 tumour expressing HLA-DR0401) was “prevents the anti-tumour response”. Moreover, the “anti-tumour response with blockade of IFNγ in vivo” value in the assay on B16F1-DR4 cells (IFNγ neutralising monoclonal antibody) was “abrogates”. Further, the “anti-tumour response with blockade of IL-17 in vivo” value in the assay with B16F1-DR4 cells (IL-17 neutralising antibody) is reported as “low significant influence”. Besides, the “anti-tumour response in combination with CD4 T cell depletion (anti-CD4 antibody)” value in the assay on B16F1-DR4 cells (clone GK1.5) is reported as “totally abrogates the anti-tumour response”. Besides, the “anti-tumour response / survival” value with B16F1-DR4 cells (peptide 25 μg in CpG and MPLA s.c. or DNA via gene gun, days 4, 11, 18, versus unimmunised control) was “strong anti-tumour responses”. In the assay on splenocytes [1] (anti-CTLA-4 days 7 and 14, IFNγ elispot, read-out: avidity of the T cell response in the presence of an anti-CTLA-4 mab), the EC50 was found to be 10 nM. Also, in the assay with splenocytes [1] (IFNγ elispot, read-out: avidity of the T cell response without anti-CTLA-4 mab), the EC50 was 1000 nM. Further, in the assay on splenocytes [1] (25 μg peptide s.c., day 14), the “IFNγ/IL-17 response with alum or IFA” value is “no response”; the “IFNγ/IL-17 responses with CpG/MPLA, GMCSF and TMX201 adjuvants” value is “Potent IFNγ/IL-17 responses”; the “IL-10 responses to the citrullinated peptides with IFA” value is on record as “high frequency IL-10 responses”. For the same molecule, the IL-10 elispot responses entry in the assay with splenocytes [1] (25 μg peptide with CpG and MPLA day 0, day 14, against wild type and citrullinated peptides) is given as “No significant IL-10 responses”. In the assay on splenocytes [1] (setting [5]), the “IL-2 elispot response to citrullinated peptide, mean” value is recorded as 350 /million splenocytes; the “IL-2 elispot response to wild type peptide” value is “no response”; the “IL-17 elispot response to citrullinated peptide, mean” value is reported as 530 /million splenocytes; the “IL-17 elispot response to wild type peptide, mean” value is on record as 140 /million splenocytes. Moreover, in the assay with splenocytes [1] (setting [6]), the “IFNγ elispot response to citrullinated peptide, mean” value is 1000 /million splenocytes and the “IFNγ elispot response to wild type peptide, mean” value is listed as “no responses”. For the same molecule, in the assay on splenocytes [1] (IFNγ elispot, L243 antibody, FIG. 15), the “response after depletion of CD4 cells or addition of MHC class II blocking antibody” value was “CD4 mediated”. For the same molecule, the “T cell responses to mouse vim 415 cit versus human vim 415 cit” value with splenocytes [1] (immunised with 25 μg human peptide day 0, day 14, IFNγ and IL-17 elispot) is recorded as “equal responses to both peptides”. For the same molecule, the “T helper phenotype when immunised with complete Freund's adjuvant” value with splenocytes [1] (mouse, in vivo) is given as “Th1/IL-17 phenotype”. Moreover, the “response after peptide immunisation” value in the assay with splenocytes [2] is listed as “failed to raise a response”. In addition, the “tumour growth and survival” value in the assay with B16F1 cells is reported as “failed to show any tumour response”. Further, the “response after peptide immunisation” value in the assay on splenocytes [3] is given as “failed to raise a response”. Moreover, the “Granzyme B release upon stimulation with citrullinated peptides” value in the assay with Granzyme B is listed as “release of Granzyme B”.

Regarding RSYVTTSTRTYSLGSALRPSTS (also called vim 28-49; vim 28) [Vimentin 28-49 wild type peptide], the binding result in the assay with HLA-DR0401 is given as “binds”.

Source of the values: patent US12258377B2 (Scancell Limited, priority 2012, dated 2025).
